In brackets after ≈: the same amount, converted by molar mass.
Columns and labels:
[1] = Partition coefficient (logP); type: physicochemical; settings: octanol/water
Acinetobacter [2] = test: In vitro Minimum inhibitory concentration against Acinetobacter CMX 669; type: functional
Escherichia coli [3] = test: In vitro Minimum inhibitory concentration against Escherichia coli Juhl; type: functional
Escherichia coli [4] = test: Supercoiling inhibition assay using purified DNA gyrase isolated from Escherichia coli H560; type: functional; settings: read-out: I50
Klebsiella pneumoniae [5] = test: In vitro Minimum inhibitory concentration against Klebsiella pneumoniae 8045; type: functional
Mus musculus [6] = test: Blood level was evaluated at 1.0 hr when administered at a peroral dose of 25 mg/kg; type: functional; settings: route oral
Mus musculus [7] = test: Blood level was evaluated at 2.0 hr when administered at a peroral dose of 25 mg/kg; type: functional; settings: route oral
Mus musculus [8] = test: Blood level was evaluated at 24.0 hr when administered at a peroral dose of 25 mg/kg; type: functional; settings: route oral
Mus musculus [9] = test: Blood level was evaluated at 3.0 hh when administered at a peroral dose of 25 mg/kg; type: functional; settings: route oral
Mus musculus [10] = test: Blood level was evaluated at 6.0 hr when administered at a peroral dose of 25 mg/kg; type: functional; settings: route oral
Mus musculus [11] = test: Blood level was evaluated by a disk agar diffusion assay at 0.5 hr when administered at a peroral dose of 25 mg/kg; type: functional; settings: route oral
Mus musculus [12] = test: In vivo efficacy against Escherichia coli Juhl, in mouse protection test when administered subcutaneously (sc); type: functional
Mus musculus [13] = test: In vivo efficacy against Escherichia coli Juhl, in mouse protection test when the administered perorally (po); type: functional
Mus musculus [14] = test: In vivo efficacy against Staphylococcus aureus 10649, in mouse protection test when administered perorally (po); type: functional
Mus musculus [15] = test: In vivo efficacy against Staphylococcus aureus 10649, in mouse protection test when administered subcutaneously (sc); type: functional
Pseudomonas aeruginosa [16] = test: In vitro Minimum inhibitory concentration against Pseudomonas aeruginosa 5007; type: functional
Pseudomonas aeruginosa [17] = test: In vitro Minimum inhibitory concentration against Pseudomonas aeruginosa K799/WT; type: functional
[18] = tested on: Staphylococcus epidermidis; test: In vitro Minimum inhibitory concentration against Staphylococcus epidermidis 3519; type: functional
Streptococcus agalactiae = test: In vitro Minimum inhibitory concentration against Streptococcus agalactiae CMX 508; type: functional
Staphylococcus aureus [19] = test: In vitro Minimum inhibitory concentration against Staphylococcus aureus 45; type: functional
Staphylococcus aureus [20] = test: In vitro Minimum inhibitory concentration against Staphylococcus aureus A5177; type: functional
Staphylococcus aureus [21] = test: In vitro Minimum inhibitory concentration against Staphylococcus aureus ATCC 6538P; type: functional
Streptococcus equinus = test: In vitro Minimum inhibitory concentration against Streptococcus bovis A5169; type: functional
Enterococcus faecium = test: In vitro Minimum inhibitory concentration against Streptococcus faecium ATCC 8043; type: functional
Streptococcus pyogenes = test: In vitro Minimum inhibitory concentration against Streptococcus pyogenes 930; type: functional
[22] = Compound was evaluated for the solubility in Ringer's buffer solution; type: ADME; settings: Ringer's buffer solution; read-out: Solubility
Staphylococcus aureus [23] = test: In vitro Minimum inhibitory concentration against Staphylococcus aureus CMX 686B; type: functional
[24] = Blood level was evaluated by a disk agar diffusion assay at 3.0 hh when administered at a peroral dose of 100 mg/kg; type: ADME, organism-based; set-up: dose 100 mg/kg, route oral; settings: mouse, po, read-out: Blood level
Acinetobacter [25] = test: In vitro Minimum inhibitory concentration against Acinetobacter CMX 669
Mus musculus [26] = test: In vivo efficacy against Escherichia coli Juhl, in mouse protection tests. when administered perorally (po); type: functional
Klebsiella pneumoniae [27] = test: In vitro Minimum inhibitory concentration against Klebsiella pneumoniae 8045

Row | Structure (SMILES) | logP [1] | MIC (Acinetobacter [2]; Acinetobacter, read-out: MIC) | MIC (Escherichia coli [3]) | MIC (Klebsiella pneumoniae [5]) | ED50 (Mus musculus [12]) | ED50 (Mus musculus [14]) | ED50 (Mus musculus [15]) | MIC (Pseudomonas aeruginosa [16]) | MIC (Pseudomonas aeruginosa [17]) | MIC [18] | MIC (Streptococcus agalactiae) | MIC (Staphylococcus aureus [19]) | MIC (Staphylococcus aureus [20]) | MIC (Staphylococcus aureus [21]) | MIC (Streptococcus equinus) | MIC (Enterococcus faecium) | MIC (Streptococcus pyogenes) | solubility [22] | MIC (Staphylococcus aureus [23]) | other results
1 | C[C@H]1C[C@H](N)CN1c1nc2c(cc1F)c(=O)c(C(=O)O)cn2-c1ccc(F)cc1F | -0.2 | 0.1 µg/mL (≈ 0.239 µM) | 0.02 µg/mL (≈ 0.0478 µM) | 0.02 µg/mL (≈ 0.0478 µM) | 0.6 mg/kg | > 2.5 mg/kg | 0.9 mg/kg | 0.78 µg/mL (≈ 1.86 µM) | 0.78 µg/mL (≈ 1.86 µM) | 0.05 µg/mL (≈ 0.12 µM) | 0.2 µg/mL (≈ 0.478 µM) | 0.05 µg/mL (≈ 0.12 µM) | 0.05 µg/mL (≈ 0.12 µM) | 0.02 µg/mL (≈ 0.0478 µM) | 0.2 µg/mL (≈ 0.478 µM) | 0.1 µg/mL (≈ 0.239 µM) | 0.2 µg/mL (≈ 0.478 µM) | 150 µg/mL (≈ 359 µM) | 0.02 µg/mL (≈ 0.0478 µM) | IC50 (Escherichia coli [4]): 0.6 µg/mL (≈ 1.43 µM); Blood level (Mus musculus [6]): 3.2 µg/mL; Blood level (Mus musculus [7]): 3.3 µg/mL; Blood level (Mus musculus [8]): 0.2 µg/mL; Blood level (Mus musculus [9]): 2.8 µg/mL; Blood level (Mus musculus [10]): 1.3 µg/mL; Blood level (Mus musculus [11]): 5.9 µg/mL; ED50 (Mus musculus [13]): 2.7 mg/kg
2 | NC1CCN(c2cc3c(cc2F)c(=O)c(C(=O)O)cn3-c2ccc(F)cc2F)C1 (stereo unspecified) | – | 0.1 µg/mL (≈ 0.248 µM) | 0.05 µg/mL (≈ 0.124 µM) | 0.05 µg/mL (≈ 0.124 µM) | – | – | – | 1.56 µg/mL (≈ 3.87 µM) | – | 0.1 µg/mL (≈ 0.248 µM) | 0.2 µg/mL (≈ 0.496 µM) | 0.1 µg/mL (≈ 0.248 µM) | 0.1 µg/mL (≈ 0.248 µM) | 0.05 µg/mL (≈ 0.124 µM) | 0.78 µg/mL (≈ 1.93 µM) | 0.2 µg/mL (≈ 0.496 µM) | 0.2 µg/mL (≈ 0.496 µM) | – | 0.05 µg/mL (≈ 0.124 µM) | MIC (Acinetobacter [2]): 0.1 µg/mL (≈ 0.248 µM); concentration at 3 h [24]: 900 ng/mL; MIC (Acinetobacter [25]): 0.1 µg/mL (≈ 0.248 µM)
3 | CCC1C[C@H](N)CN1c1cc2c(cc1F)c(=O)c(C(=O)O)cn2-c1ccc(F)cc1F (stereo partly specified) | – | 0.2 µg/mL (≈ 0.464 µM) | 0.1 µg/mL (≈ 0.232 µM) | 0.05 µg/mL (≈ 0.116 µM) | 2.4 mg/kg | 2.4 mg/kg | 0.8 mg/kg | 6.2 µg/mL (≈ 14.4 µM) | 0.78 µg/mL (≈ 1.81 µM) | 0.1 µg/mL (≈ 0.232 µM) | 0.1 µg/mL (≈ 0.232 µM) | 0.1 µg/mL (≈ 0.232 µM) | 0.1 µg/mL (≈ 0.232 µM) | 0.05 µg/mL (≈ 0.116 µM) | 0.2 µg/mL (≈ 0.464 µM) | 0.2 µg/mL (≈ 0.464 µM) | 0.1 µg/mL (≈ 0.232 µM) | – | 0.05 µg/mL (≈ 0.116 µM) | ED50 (Mus musculus [26]): 9.6 mg/kg
4 | N[C@H]1CC(CN2CCCC2)N(c2cc3c(cc2F)c(=O)c(C(=O)O)cn3-c2ccc(F)cc2F)C1 (stereo partly specified) | -0.56 | – | 0.78 µg/mL (≈ 1.6 µM) | – | – | – | – | 1.56 µg/mL (≈ 3.21 µM) | 1.56 µg/mL (≈ 3.21 µM) | 3.1 µg/mL (≈ 6.37 µM) | 25 µg/mL (≈ 51.4 µM) | 3.1 µg/mL (≈ 6.37 µM) | 3.1 µg/mL (≈ 6.37 µM) | 1.56 µg/mL (≈ 3.21 µM) | 25 µg/mL (≈ 51.4 µM) | 6.2 µg/mL (≈ 12.7 µM) | 25 µg/mL (≈ 51.4 µM) | 680 µg/mL (≈ 1400 µM) | 1.56 µg/mL (≈ 3.21 µM) | MIC (Klebsiella pneumoniae [27]): 0.39 µg/mL (≈ 0.802 µM)

From ChEMBL document CHEMBL1124182, “Design, synthesis, and properties of (4S)-7-(4-amino-2-substituted-pyrrolidin-1-yl)quinolone-3-carboxylic acids” (J Med Chem, 1988)
